How the values were obtained:
endothelial cells = test: Endothelial cell migration (chemotaxis) assay with penetratin peptide chimeras; type: cell-based, human; conditions: 48-well microchemotaxis chamber
Procedure: FIG. 25. Effect of penetratin peptide chimeras on endothelial cell migration. Cell migration assay were performed, in a 48-well microchemotaxis chamber. Five random high-power fields (magnitude 40×) were counted in each well.
Cell migration assays were performed as follows: 48-well microchemotaxis chambers were used. Polyvinylpyrrolidone-free polycarbonate filters (Nucleopore, Cambridge, Mass.) with 8-μm pores were coated with 1% gelatin for 10 min at room temperature and equilibrated in M199 medium supplemented with 2% FCS. Peptides were placed in the lower compartment of a Boyden chamber in M199 supplemented with 2% FCS, 20 ng/ml VEGF-A (R&D System), and 1 U/ml heparin. Overnight-starved subconfluent cultures were quickly trypsinized, and resuspended in M199 containing 2% FCS at a final concentration of 2×10^6 cells/ml. After the filter was placed between lower and upper chambers, 50 μl of the cell suspension was seeded in the upper compartment. Cells were allowed to migrate for 5 h at 37° C. in a humidified atmosphere with 5% CO2. The filter was then removed, and cells on the upper side were scraped with a rubber policeman. […] Five random high-power fields (magnitude 40×) were counted in each well.
Cell migration was assayed in a 48-well microchemotaxis chamber. […] Five random high-power fields (magnitude 40×) were counted in each well.

[1] = tested on: chicken chorioallantoic membrane (CAM); test: CAM assay for angiogenesis; type: in vivo
Procedure: In vivo angiogenesis was evaluated by a CAM assay (Ribatti et al., 1994). Fertilized eggs from White Leghorn chickens were maintained in constant humidity at 37° C. On the third day of incubation, a square window was opened in the eggshell and 2-3 ml of albumen was removed to detach the developing CAM from the shell. The window was sealed with a glass plate of the same size and the eggs were returned to the incubator. At day 8, 1 mm^3 sterilized gelatin sponges (Gelfoam, Upjohn Co, Kalamazoo, […]) were adsorbed with VEGF-A (20 ng, R&D System) and either […] (SEQ ID NO:56) or control […] (SEQ ID NO:57) peptide (1 mM) in 3 μl PBS and implanted on the top of the growing CAMs under sterile conditions. CAMs were examined daily until day 12 and photographed in ovo with a Leica stereomicroscope. Capillaries emerging from the sponge were counted. The assay was repeated twice.

HUVECs [2] = test: HUVEC chemotaxis assay (Boyden chamber); type: cell-based, human; conditions: HUVECs, VEGF-A, not shown
Procedure: FIG. 33. […] (SEQ ID NO:56) inhibits HUVEC migration. HUVECs were stimulated with VEGF-A (10 ng/ml). The assay was performed in a Boyden microchemotaxis chamber, and cells were allowed to migrate through an 8-μm pore filter for 5 h at 37° C. […] (SEQ ID NO:57) (control) and […] (SEQ ID NO:56) peptides were tested at 1 mM concentration. Migrated cells were stained and five high-power fields (magnitude 100×) for each microwell were counted. Error bars are the standard error of the means of triplicate microwells.
A cell migration assay was performed in a 48-well microchemotaxis chamber (NeuroProbe, Gaithersburg, Md.) according to Bussolini et al. (1995). Polyvinylpyrrolidone-free polycarbonate filters (Nucleopore, Cambridge, Mass.) with 8-μm pores were coated with 1% gelatin for 10 min at room temperature and equilibrated in M199 medium supplemented with 2% FCS. […] (SEQ ID NO:56) or control […] (SEQ ID NO:57) peptide (1 mM) was placed in the lower compartment of a Boyden chamber in M199 medium supplemented with 2% FCS and 10 ng/ml VEGF-A (R&D System). Subconfluent cultures that had been starved overnight were harvested in PBS containing 2.5 mM EDTA, washed once in PBS, and resuspended in M199 medium containing 2% FCS at a final concentration of 2×10^6 cells/ml. […] Five random high-power fields (magnitude 100×) were counted in each well. […]

HUVECs [3] = test: Three-dimensional cell culture on Matrigel; type: cell-based, human; conditions: HUVECs on three-dimensional matrix gel, not shown
Procedure: Matrigel (Collaborative Research, Bedford, Mass.) was added at 100 μl per well to 48-well tissue culture plates and allowed to solidify for 10 min at 37° C. HUVECs were starved for 24 h in M199 medium supplemented with 2% FCS before being harvested in PBS containing 2.5 mM EDTA. 10^4 cells were gently added to each of the triplicate wells and allowed to adhere to the gel coating for 30 min at 37° C. Then, medium was replaced with indicated concentrations of […] (SEQ ID NO:56) or […] (SEQ ID NO:57) peptides in complete medium. The plates were photographed after 24 h with an inverted microscope (Canon). The assay was repeated three times.

SK-RC-49/APA cells = test: Phage binding specificity assay on SK-RC-49/APA cells; type: cell-based; conditions: soluble peptide, not shown
Procedure: The cell binding assay was performed with an input of 10^9 TU as described for the cell panning. The specificity was confirmed by adding […] (SEQ ID NO:56) peptide to the binding medium in increasing concentrations. For phage binding on immunocaptured APA, wells were blocked for 1 h at room temperature with PBS/3% BSA and incubated with 10^9 TU for 1 h at room temperature in 50 μl PBS/3% BSA. After eight washes in PBS/1% BSA/0.01% Tween-20 and two washes in PBS, phage were rescued by adding 200 μl of exponentially growing K91Kan E. coli. Each experiment was repeated at least three times.

[4] = biological target: T1, β5 integrin cytoplasmic domain (Homo sapiens, UniProt P18084); test: Phage binding to immobilized GST-β5cyto; conditions: phage colonies
T1 construct: screenings involving the β5 cytoplasmic domain fusion protein
T1 sequence (P18084 743-799 limits assumed): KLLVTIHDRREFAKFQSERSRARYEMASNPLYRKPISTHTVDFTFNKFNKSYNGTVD
Procedure: (§1) FIG. 19. Binding of β5 cytoplasmic domain-selected phage to immobilized proteins. GST fusion proteins or GST alone were coated on microtiter wells at 10 μg/ml and used to bind phage-expressing endostatin binding peptides. […] The data represent the mean colony counts from triplicate wells, with standard error less than 10% of the mean.
(§2) β3 and β5 cytoplasmic domain-binding peptides were isolated by screening multiple phage libraries with recombinant GST fusion proteins that contained either GST-β3cyto or GST-β5cyto coated onto microtiter wells. Immobilized GST was used as a negative control for enrichment during the panning of each cytoplasmic domain. Phage were sequenced from randomly selected clones after three rounds of panning as disclosed elsewhere (Koivunen et al., Biotechnology 13:265-270, 1995; Pasqualini et al., 1995). Distinct sequences were isolated that interacted specifically with the β3 or with the β5 cytoplasmic domains (Table 4). Randomly selected clones from panning rounds II and III were sequenced. Amino acid sequences of the phagemid encoded peptides were deduced from nucleotide sequences. The ratios were calculated by dividing the number of colonies recovered from β3-GST-coated wells and those recovered from GST or BSA.
A similar strategy was used to determine the specificity of the phage isolated in the screenings involving the β5 cytoplasmic domain fusion protein.

[5] = biological target: T2, β3 integrin cytoplasmic domain (Homo sapiens, UniProt P05106); test: Phage binding to immobilized GST-β3cyto
T2 sequence (P05106 742-788 limits assumed): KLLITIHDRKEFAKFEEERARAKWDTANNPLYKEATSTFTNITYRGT
Procedure: as §1, with “18.” for “19.”, “β3” for “β5”, “targeting” for “binding”, “error of” for “error”
as §2, with “Amino acid sequences of the phagemid encoded peptides were deduced from nucleotide sequences.” left out
The specificity of the interaction with β3 or β5 cytoplasmic domains was determined by calculating the ratios of phage bound to the cytoplasmic domain containing-fusion proteins (β3 or β5) versus GST alone (negative control). […]

GLDTYRGSP
effect on endothelial cell migration (endothelial cells): increase cell migration

GACVRLSACGA [reference compound]
BLOOD VESSEL NUMBERS ([1]; VEGF-A 20 ng, peptide 1 mM, mean and standard error, two experiments): 56.5 ± 2.12 | effect on the number of growing vessels ([1]; not shown): no effect on the number of growing vessels | effect on cell migration or proliferation (HUVECs [2]): no significant effect on cell migration or proliferation | formation of capillary-like network (HUVECs [3]): did not affect HUVEC morphogenesis | competition with CPKVCPRECESNC phage for binding to SK-RC-49/APA cells (SK-RC-49/APA cells): no competitive activity

SDNRYIGSW
effect on endothelial cell migration (endothelial cells): increase cell migration

CKLWQEDGY
β5/BSA Ratio ([4]; β5 versus BSA): 665 | β5/GST Ratio ([4]; β5 versus GST): 1.8

AGWLYMSWK
β3/BSA Ratio ([5]; phage colonies recovered from β3-GST-coated wells divided by BSA): 2.4 | β3/GST Ratio ([5]; phage colonies recovered from β3-GST-coated wells divided by GST): 1.8
